Data on 17 compounds can be found in patent publication EP4353712A1 (Biodol Therapeutics, priority 2022, dated 2024).

One may read the IC50 as the concentration that inhibits the measured activity by half.

Molecules are shown by their SMILES. Counter-ions that a name gives are not always drawn.

In the test the target is T1, FLT3 (Homo sapiens, UniProt P36888).
T1 construct: expressed in transfected cells; host or cells: HEK293T
T1 sequence (P36888 27-993): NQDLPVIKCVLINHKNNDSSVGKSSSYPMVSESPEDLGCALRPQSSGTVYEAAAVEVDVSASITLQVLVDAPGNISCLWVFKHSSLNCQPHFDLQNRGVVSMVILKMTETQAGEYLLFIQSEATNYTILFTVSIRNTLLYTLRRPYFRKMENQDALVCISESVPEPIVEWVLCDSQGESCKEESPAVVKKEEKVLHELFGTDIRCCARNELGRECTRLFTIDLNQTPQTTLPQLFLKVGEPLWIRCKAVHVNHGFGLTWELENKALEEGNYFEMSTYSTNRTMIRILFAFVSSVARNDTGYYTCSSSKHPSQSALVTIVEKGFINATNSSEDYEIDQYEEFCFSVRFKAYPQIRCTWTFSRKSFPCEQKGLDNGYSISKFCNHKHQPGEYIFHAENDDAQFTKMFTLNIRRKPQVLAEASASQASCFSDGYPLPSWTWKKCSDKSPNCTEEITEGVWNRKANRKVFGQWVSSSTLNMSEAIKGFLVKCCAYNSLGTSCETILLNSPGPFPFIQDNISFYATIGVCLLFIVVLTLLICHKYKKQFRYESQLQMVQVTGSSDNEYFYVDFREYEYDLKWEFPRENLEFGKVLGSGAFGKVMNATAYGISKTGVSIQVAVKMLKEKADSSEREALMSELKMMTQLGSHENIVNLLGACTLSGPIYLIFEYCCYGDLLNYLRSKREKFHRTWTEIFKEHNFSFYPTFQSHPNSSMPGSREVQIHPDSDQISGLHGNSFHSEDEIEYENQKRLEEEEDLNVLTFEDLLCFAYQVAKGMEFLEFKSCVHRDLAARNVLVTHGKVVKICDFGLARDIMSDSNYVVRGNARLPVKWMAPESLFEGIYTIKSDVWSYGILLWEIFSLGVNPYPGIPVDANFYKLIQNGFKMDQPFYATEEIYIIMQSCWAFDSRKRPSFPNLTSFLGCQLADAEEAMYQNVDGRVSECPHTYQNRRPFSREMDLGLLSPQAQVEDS
The experiment in a line: HTRF binding assay of FL to FLT3 (TR-FRET, SNAP-FLT3 transfected HEK293T cells). The conditions noted are these: HEK293T cells transfected with SNAP-FLT3, labelled with SNAP-Lumi4-Tb; compounds 1 h at room temperature, then FL-d2 (0.5 nM), read after 20 h; 12 dilutions in triplicates, performed twice; read-out: Inhibition of FLT3 binding IC50, binding. As for the experimental part:
The binding of FL to FLT3 was measured by a Homologous Time-Resolved Fluorescence (HTRF) assay (Degorce et al., Current Chemical Genomics, 2009, 3, 22-32), which involves resonance energy transfer between a donor, Lumi4-Tb-donor-derivatized benzylguanine substrate (SNAP-Lumi4-Tb, excitation: 337 nm, emission: 630 nm, Cisbio, France), transfected in HEK cells, and an acceptor, red fluorescent FL (FL-d2, excitation: 620 nm, emission: 660 nm, Cisbio, France). When FL-d2 binds to the SNAP-Lumi4-Tb-tagged FLT3 receptor, the proximity of both fluorophores allows the time-resolved Förster resonance energy transfer (TR-FRET) signal to occur and the binding is measured as the ratio between the fluorescent emissions at 660 to 620 nm.
The detailed method is described in Rivat et al. (Nature Communications, 2018, 9 :1042). Briefly, HEK293T cells were transfected with a pCDNA3.1 SNAP-FLT3 plasmid by using Lipofectamine (Invitrogen), and were than labelled with SNAP-Lumi4-Tb. Plates containing attached transfected HEK293T cells were incubated with compounds of formula (I) for 1 h at room temperature. A series of 12 dilutions in triplicates was used for each compound and the experiment was performed twice. Then FL-d2 (0.5 nM) was added and the TR-FRET signal was read after 20 h incubation at room temperature with a HTRF-compatible reader (Envision, Perkin Elmer) allowing a donor excitation at 337 nm and a signal collection both at 615 nm and 665 nm (20 flashes, delay 50 µs, integration time 400 µs). Then HTRF ratio, obtained by dividing the acceptor signal (665 nm) by the donor signal (615 nm), was calculated at each concentration of test compounds. Non-specific binding was measured in the presence 50 µM of BDT001 (Rivat et al., ibid.). Concentration giving 50 % inhibition (IC50) were calculated by non-linear regression analysis for a one-site model, with variable slope (Prism®, Graphpad software, USA).
A general note: In TR-FRET formats the signal depends on donor and acceptor labels being close together.
For `CN(C)CCOc1ccc(C(=O)Nc2cccc3ccncc23)cc1C#N` [(36), 3-cyano-4-(2-(dimethylamino)ethoxy)-N-(isoquinolin-8-yl)benzamide], the IC50 was 2500 nM. For the compound `CN1CCN(c2ccc(C(=O)Nc3ccc(F)c4nccnc34)cc2)CC1` [(37), N-(8-fluoroquinoxalin-5-yl)-4-(4-methylpiperazin-1-yl)benzamide], the IC50 stood at 700 nM.

With `CN1CCN(c2ccc(C(=O)Nc3cccc4ccncc34)cc2)CC1` [(38), N-(isoquinolin-8-yl)-4-(4-methylpiperazin-1-yl)benzamide], the IC50 is 600 nM. With `CN1CCN(c2ccc(C(=O)Nc3cccc4cnccc34)cc2)CC1` [(39), N-(isoquinolin-5-yl)-4-(4-methylpiperazin-1-yl)benzamide] the figure was 800 nM; with `CN1CCN(c2ccc(C(=O)Nc3cccc4ncccc34)cc2)CC1` [(40), 4-(4-methylpiperazin-1-yl)-N-(quinolin-5-yl)benzamide], 1700 nM.

Take `CN1CCN(c2ccc(C(=O)Nc3cccc4nccnc34)cc2)CC1` [(41), 4-(4-methylpiperazin-1-yl)-N-(quinoxalin-5-yl)benzamide]: the IC50 was found to be 600 nM. With `CN1CCN(c2ccc(C(=O)Nc3ccc(F)c4cccnc34)cc2)CC1` [(42), N-(5-fluoroquinolin-8-yl)-4-(4-methylpiperazin-1-yl)benzamide] the figure was 3100 nM; with `Cc1cc(C(=O)Nc2cccc3cccnc23)ccc1OCCN(C)C` [(43), 4-(2-(dimethylamino)ethoxy)-3-methyl-N-(quinolin-8-yl)benzamide], 2100 nM; with `CN1CCN(c2ccc(C(=O)Nc3ccc(F)c4ncccc34)cc2)CC1` [(44), N-(8-fluoroquinolin-5-yl)-4-(4-methylpiperazin-1-yl)benzamide], 3800 nM. To `Cc1cc(N2CCN(C)CC2)ccc1C(=O)Nc1cccc2cnccc12` [(45), N-(isoquinolin-5-yl)-2-methyl-4-(4-methylpiperazin-1-yl)benzamide] belongs 1000 nM; to `CN1CCN(c2ccc(C(=O)Nc3ccc(Cl)c4ncccc34)cc2)CC1` [(46), N-(8-chloroquinolin-5-yl)-4-(4-methylpiperazin-1-yl)benzamide], 1000 nM.

In the case of `Cc1cc(OCCN(C)C)ccc1C(=O)Nc1cccc2ncccc12` [(47), 4-(2-(dimethylamino)ethoxy)-2-methyl-N-(quinolin-5-yl)benzamide], the IC50 is 1700 nM. With `CN(C)CCOc1ccc(C(=O)Nc2cccc3cnccc23)cc1C(F)(F)F` [(48), 4-(2-(dimethylamino)ethoxy)-N-(isoquinolin-5-yl)-3-(trifluoromethyl)benzamide] the figure was 1300 nM; with `CN(C)CCOc1ccc(C(=O)Nc2cccc3ncccc23)c(C(F)(F)F)c1` [(49), 4-(2-(dimethylamino)ethoxy)-N-(quinolin-5-yl)-2-(trifluoromethyl)benzamide], 2400 nM. For the compound `COc1cc(C(=O)Nc2cccc3ncccc23)ccc1N1CCN(C)CC1` [(50), 3-methoxy-4-(4-methylpiperazin-1-yl)-N-(quinolin-5-yl)benzamide], the IC50 was 2300 nM. To `CN1CCN(c2ccc(C(=O)Nc3ccc(Cl)c4cnccc34)cc2)CC1` [(51), N-(8-chloroisoquinolin-5-yl)-4-(4-methylpiperazin-1-yl)benzamide hydrochloride] belongs 1300 nM; to `CN1CCN(c2ccc(C(=O)Nc3ccc(C(F)(F)F)c4ccncc34)cc2)CC1` [(52), 4-(4-methylpiperazin-1-yl)-N-[5-(trifluoromethyl)isoquinolin-8-yl]benzamide hydrochloride], 7500 nM.
